Measurements taken from patent US20210267203A1, “PESTICIDALLY ACTIVE AZOLE-AMIDE COMPOUNDS” (SYNGENTA PARTICIPATIONS AG, priority 2018, published 2021).

Legend:
Format in all cases: in vivo
[1] = system: Diabrotica Balteata (Corn Root Worm); experiment: Example B1: Diabrotica balteata (corn root worm), maize sprouts sprayed, L2 larvae; settings: 96 h, application rate 200 ppm, 4 days after infestation, read-out: effect in at least one of the two categories (mortality or growth inhibition)
Method in brief: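 Maize sprouts on agar sprayed with aqueous dilutions of 10,000 ppm DMSO stocks, dried, then infested with 6–10 L2 larvae per well. Mortality and growth inhibition scored against untreated samples 4 days after infestation; rates of 200 ppm.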

[2] = system: Myzus persicae (Green Peach Aphid); experiment: Example B13: activity against Myzus persicae (green peach aphid), 96-well sucrose solution; settings: 120 h, application rate 50 ppm, 5 days after infestation
Method in brief: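 Compounds, from 10,000 ppm DMSO stocks, mixed into sucrose solution in wells under stretched Parafilm, with aphids placed on the membrane in an inverted feeding setup. Mortality scored 5 days after infestation.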

[3] = system: Plutella xylostella (Diamond Back Moth); experiment: Example B5: Plutella xylostella (diamond back moth), artificial diet, 24-well, eggs; settings: 192 h, application rate 200 ppm, 8 days after infestation, read-out: effect in at least one of the two categories (mortality or growth inhibition)
Method in brief: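 Artificial diet in 24-well plates treated with aqueous dilutions of 10,000 ppm DMSO stocks, dried, then infested with Plutella eggs. Mortality and growth inhibition scored against untreated samples 8 days after infestation; activity rated at 200 ppm application rate.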

[4] = system: Thrips tabaci (Onion Thrips); experiment: Example B12: Thrips tabaci (onion thrips), feeding/contact activity; settings: 144 h, application rate 200 ppm, mixed ages, 6 days after infestation
Method: Example B12: Thrips tabaci (Onion Thrips) Feeding/Contact Activity
Sunflower leaf discs were placed on agar in 24-well microtiter plates and sprayed with aqueous test solutions prepared from 10,000 ppm DMSO stock solutions. After drying the leaf discs were infested with a thrips population of mixed ages. The samples were assessed for mortality 6 days after infestation.

[5] = system: Spodoptera littoralis (Egyptian Cotton Leaf Worm); experiment: Example B9: Spodoptera littoralis (Egyptian cotton leaf worm), cotton leaf discs sprayed, L1 larvae; settings: foliar, 72 h, application rate 200 ppm, 3 days after infestation
Method in brief: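 Leaf discs on agar sprayed with aqueous dilutions from 10,000 ppm DMSO stock, dried, then infested with five L1 larvae. Mortality, anti-feeding and growth inhibition scored against untreated samples 3 days after infestation; control counted when any category exceeds untreated.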

[6] = system: Plutella xylostella (Diamondback Moth); experiment: Example B14: activity against Plutella xylostella (diamondback moth), 96-well artificial diet; settings: 216 h, application rate 500 ppm, 9 days after infestation
Method in brief: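 Diet in 96-well plates was treated with aqueous dilutions of 10,000 ppm DMSO stocks, dried, and infested with 30 eggs per well via a netted lid; hatching L1 larvae fed on the diet. Mortality scored 9 days after infestation.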

[7] = system: Myzus persicae (Green Peach Aphid); experiment: Example B8: Myzus persicae (green peach aphid), intrinsic activity; settings: 120 h, test rate 12 ppm, sucrose solution, 24-well, 5 days after infestation
Excerpt: Example B8: Myzus persicae (Green Peach Aphid), Intrinsic Activity
Test compounds prepared from 10,000 ppm DMSO stock solutions were applied by pipette into 24-well microtiter plates and mixed with sucrose solution. The plates were closed with a stretched Parafilm. A plastic stencil with 24 holes was placed onto the plate and infested pea seedlings were placed directly on the Parafilm. The infested plate was closed with a gel blotting paper and another plastic stencil and then turned upside down. The samples were assessed for mortality 5 days after infestation.

[8] = system: Euschistus heros (Neotropical Brown Stink Bug); experiment: Example B2: Euschistus heros (neotropical brown stink bug), soybean leaves sprayed, N2 nymphs; settings: 120 h, application rate 200 ppm, 5 days after infestation, read-out: effect in at least one of the two categories (mortality or growth inhibition)
Method: Example B2: Euschistus heros (Neotropical Brown Stink Bug)
Soybean leaves on agar in 24-well microtiter plates were sprayed with aqueous test solutions prepared from 10,000 ppm DMSO stock solutions. After drying the leaves were infested with N2 nymphs. The samples were assessed for mortality and growth inhibition in comparison to untreated samples 5 days after infestation.
The following compounds gave an effect of at least 80% in at least one of the two categories (mortality or growth inhibition) at an application rate of 200 ppm: […]

[9] = system: Spodoptera littoralis (Egyptian Cotton Leaf Worm); experiment: Example B10: Spodoptera littoralis (Egyptian cotton leaf worm), uptake by lettuce roots from agar, eggs; settings: 144 h, test rate 12.5 ppm, lettuce root uptake, 6 days after infestation, read-out: effect in at least one of the three categories (mortality, anti-feeding, or growth inhibition)
Excerpt: Example B10: Spodoptera littoralis (Egyptian Cotton Leaf Worm)
Test compounds were applied by pipette from 10,000 ppm DMSO stock solutions into 24-well plates and mixed with agar. Lettuce seeds were placed onto the agar and the multi well plate was closed by another plate which contained also agar. After 7 days the compound was absorbed by the roots and the lettuce grew into the lid plate. The lettuce leaves were then cut off into the lid plate. Spodoptera eggs were pipetted through a plastic stencil onto a humid gel blotting paper and the lid plate was closed with it. The samples were assessed for mortality, anti-feedant effect and growth inhibition in comparison to untreated samples 6 days after infestation.
The following compounds gave an effect of at least 80% in at least one of the three categories (mortality, anti-feeding, or growth inhibition) at a test rate of 12.5 ppm: […]

[10] = system: Chilo suppressalis (Striped Rice Stemborer); experiment: Example B4: Chilo suppressalis (striped rice stemborer), artificial diet, L2 larvae; settings: 144 h, application rate 200 ppm, 6 days after infestation
Method: Example B4: Chilo suppressalis (Striped Rice Stemborer)
24-well microtiter plates with artificial diet were treated with aqueous test solutions prepared from 10,000 ppm DMSO stock solutions by pipetting. After drying, the plates were infested with L2 larvae (6-8 per well). The samples were assessed for mortality, anti-feeding effect, and growth inhibition in comparison to untreated samples 6 days after infestation. Control of Chilo suppressalis by a test sample is given when at least one of the categories (i.e. mortality, anti-feedant effect, and growth inhibition) is higher than the untreated sample.

[11] = system: Myzus persicae (Green Peach Aphid); experiment: Example B6: Myzus persicae (green peach aphid), feeding/contact activity; settings: 144 h, application rate 200 ppm, 6 days after infestation
Method: Example B6: Myzus persicae (Green Peach Aphid):Feeding/Contact Activity
Sunflower leaf discs were placed onto agar in a 24-well microtiter plate and sprayed with aqueous test solutions prepared from 10,000 ppm DMSO stock solutions. After drying, the leaf discs were infested with an aphid population of mixed ages. The samples were assessed for mortality 6 days after infestation.

CC(c1ncnn1-c1ncccn1)N(CC1CC1)C(=O)c1cc(C2CC2)cc(C(F)(F)F)c1 (centres unmarked) [P52, 3-cyclopropyl-N-(cyclopropylmethyl)-N-[1-(2-pyrimidin-2-yl-1,2,4-triazol-3-yl)ethyl]-5-(trifluoromethyl)benzamide]
≥ 80%: percent effect (mortality or growth inhibition) at 200 ppm [1] | mortality at 50 ppm [2] | percent effect (mortality or growth inhibition) at 200 ppm [3] | mortality at 200 ppm [4] | percent control (mortality, anti-feedant effect or growth inhibition) at 200 ppm [5] | mortality at 500 ppm [6] | mortality at 12 ppm [7] | percent effect (mortality or growth inhibition) at 200 ppm [8]

CC(NC(=O)c1cc(C2CC2)nc(C(F)(F)F)c1)c1ncnn1-c1ncccn1 (centres unmarked) [P54, 2-cyclopropyl-N-[1-(2-pyrimidin-2-yl-1,2,4-triazol-3-yl)ethyl]-6-(trifluoromethyl)pyridine-4-carboxamide]
≥ 80%: percent effect (mortality or growth inhibition) at 200 ppm [1] | mortality at 50 ppm [2] | percent effect (mortality or growth inhibition) at 200 ppm [3] | percent effect (mortality, anti-feeding or growth inhibition) at 12.5 ppm [9] | percent control (mortality, anti-feedant effect or growth inhibition) at 200 ppm [5] | mortality at 500 ppm [6] | mortality at 12 ppm [7] | percent effect (mortality or growth inhibition) at 200 ppm [8]

CC(c1ncnn1-c1ncccn1)N(C)C(=O)c1cc(C(F)(F)F)cc(C(F)(F)C2CC2)c1 (centres unmarked) [P58, 3-[cyclopropyl(difluoro)methyl]-N-methyl-N-[1-(2-pyrimidin-2-yl-1,2,4-triazol-3-yl)ethyl]-5-(trifluoromethyl)benzamide]
≥ 80%: percent effect (mortality or growth inhibition) at 200 ppm [1] | mortality at 50 ppm [2] | percent effect (mortality or growth inhibition) at 200 ppm [3] | percent effect (mortality, anti-feeding or growth inhibition) at 12.5 ppm [9] | percent control (mortality, anti-feedant effect or growth inhibition) at 200 ppm [10] | percent control (mortality, anti-feedant effect or growth inhibition) at 200 ppm [5] | mortality at 500 ppm [6] | mortality at 12 ppm [7] | percent effect (mortality or growth inhibition) at 200 ppm [8]

CC(c1ncnn1-c1ncccn1)N(CC1CC1)C(=O)c1cc(Cl)cc(C2(C#N)CC2)n1 (centres unmarked) [P29, 4-chloro-6-(1-cyanocyclopropyl)-N-(cyclopropylmethyl)-N-[1-(2-pyrimidin-2-yl-1,2,4-triazol-3-yl)ethyl]pyridine-2-carboxamide]
≥ 80%: percent effect (mortality or growth inhibition) at 200 ppm [1] | mortality at 50 ppm [2] | percent effect (mortality or growth inhibition) at 200 ppm [3] | mortality at 200 ppm [4] | mortality at 500 ppm [6] | mortality at 12 ppm [7] | percent effect (mortality or growth inhibition) at 200 ppm [8]

CC(NC(=O)c1cc(C(F)(F)F)cc(C(F)(F)C2CC2)c1)c1ncnn1-c1ncccn1 (centres unmarked) [P59, 3-[cyclopropyl(difluoro)methyl]-N-[1-(2-pyrimidin-2-yl-1,2,4-triazol-3-yl)ethyl]-5-(trifluoromethyl)benzamide]
≥ 80%: percent effect (mortality or growth inhibition) at 200 ppm [1] | mortality at 50 ppm [2] | percent effect (mortality or growth inhibition) at 200 ppm [3] | percent effect (mortality, anti-feeding or growth inhibition) at 12.5 ppm [9] | percent control (mortality, anti-feedant effect or growth inhibition) at 200 ppm [10] | percent control (mortality, anti-feedant effect or growth inhibition) at 200 ppm [5] | mortality at 500 ppm [6] | mortality at 12 ppm [7] | percent effect (mortality or growth inhibition) at 200 ppm [8]

CC(c1ncnn1-c1ncccn1)N(CC1CC1)C(=O)c1cc(C(F)(F)F)cc(S(=O)(=O)C(F)F)c1 (centres unmarked) [P30, N-(cyclopropylmethyl)-3-(difluoromethylsulfonyl)-N-[1-(2-pyrimidin-2-yl-1,2,4-triazol-3-yl)ethyl]-5-(trifluoromethyl)benzamide]
≥ 80%: percent effect (mortality or growth inhibition) at 200 ppm [1] | mortality at 50 ppm [2] | percent effect (mortality or growth inhibition) at 200 ppm [3] | mortality at 200 ppm [4] | mortality at 500 ppm [6] | mortality at 12 ppm [7] | percent effect (mortality or growth inhibition) at 200 ppm [8]

CC(NC(=O)c1cc(C2CC2(F)F)cc(C(F)(F)F)c1)c1ncnn1-c1ncccn1 (centres unmarked) [P87, 3-(2,2-difluorocyclopropyl)-N-[1-(2-pyrimidin-2-yl-1,2,4-triazol-3-yl)ethyl]-5-(trifluoromethyl)benzamide]
≥ 80%: percent effect (mortality or growth inhibition) at 200 ppm [1] | mortality at 50 ppm [2] | percent effect (mortality or growth inhibition) at 200 ppm [3] | percent effect (mortality, anti-feeding or growth inhibition) at 12.5 ppm [9] | percent control (mortality, anti-feedant effect or growth inhibition) at 200 ppm [10] | mortality at 200 ppm [11] | percent control (mortality, anti-feedant effect or growth inhibition) at 200 ppm [5] | mortality at 12 ppm [7] | percent effect (mortality or growth inhibition) at 200 ppm [8]

CC(c1ncnn1-c1ncccn1)N(CC1CC1)C(=O)c1cc(C(F)(F)F)cc(C2(C)CC2C(F)(F)F)c1 (centres unmarked) [P43, N-(cyclopropylmethyl)-3-[1-methyl-2-(trifluoromethyl)cyclopropyl]-N-[1-(2-pyrimidin-2-yl-1,2,4-triazol-3-yl)ethyl]-5-(trifluoromethyl)benzamide]
≥ 80%: percent effect (mortality or growth inhibition) at 200 ppm [1] | mortality at 50 ppm [2] | percent effect (mortality or growth inhibition) at 200 ppm [3] | percent effect (mortality, anti-feeding or growth inhibition) at 12.5 ppm [9] | percent control (mortality, anti-feedant effect or growth inhibition) at 200 ppm [10] | percent control (mortality, anti-feedant effect or growth inhibition) at 200 ppm [5] | mortality at 500 ppm [6] | mortality at 12 ppm [7]

CC(c1ncnn1-c1ncccn1)N(CC1CC1)C(=O)c1cc(C(F)(F)F)nc(C2(C#N)CC2)c1 (centres unmarked) [P32, 2-(1-cyanocyclopropyl)-N-(cyclopropylmethyl)-N-[1-(2-pyrimidin-2-yl-1,2,4-triazol-3-yl)ethyl]-6-(trifluoromethyl)pyridine-4-carboxamide]
≥ 80%: percent effect (mortality or growth inhibition) at 200 ppm [1] | mortality at 50 ppm [2] | percent effect (mortality or growth inhibition) at 200 ppm [3] | percent effect (mortality, anti-feeding or growth inhibition) at 12.5 ppm [9] | percent control (mortality, anti-feedant effect or growth inhibition) at 200 ppm [10] | mortality at 200 ppm [4] | percent control (mortality, anti-feedant effect or growth inhibition) at 200 ppm [5] | mortality at 500 ppm [6] | percent effect (mortality or growth inhibition) at 200 ppm [8]
